# Measured values taken from publication PMC8787096, “Antagonism of nicotinic acetycholinergic receptors by CN‐105, an apoE‐mimetic peptide reduces stroke‐induced excitotoxicity” (Clinical and Translational Medicine, 2022).
# Where two headings read alike, the source gives them in different places. Residues, ends and D or L forms follow the SMILES beside them.
# Experiments:
# [1] = biological target: T1, α7-nAChR (Homo sapiens, UniProt P36544); assay: Patch clamp of ACh-induced currents, HEK293 cells stably expressing nAChR α7/RIC3; assay type: cell-based; settings: for %Inhibition of α7-nAChR: peptide 200 nM, relative to currents induced by 9 μM ACh
# T1 sequence (P36544 23-502): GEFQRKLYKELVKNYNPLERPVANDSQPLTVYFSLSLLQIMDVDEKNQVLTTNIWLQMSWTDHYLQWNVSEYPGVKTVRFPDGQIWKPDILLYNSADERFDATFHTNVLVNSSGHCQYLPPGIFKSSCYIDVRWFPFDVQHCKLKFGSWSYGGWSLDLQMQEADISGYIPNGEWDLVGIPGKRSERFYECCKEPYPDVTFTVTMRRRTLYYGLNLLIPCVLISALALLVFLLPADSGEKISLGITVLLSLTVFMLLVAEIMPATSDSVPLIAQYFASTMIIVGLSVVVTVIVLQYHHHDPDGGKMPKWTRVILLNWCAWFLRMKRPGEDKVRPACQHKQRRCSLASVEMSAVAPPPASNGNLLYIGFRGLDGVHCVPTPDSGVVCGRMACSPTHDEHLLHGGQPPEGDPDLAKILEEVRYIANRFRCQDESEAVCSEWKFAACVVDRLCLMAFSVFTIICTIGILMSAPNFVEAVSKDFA
# [2] = biological target: T2, α4β2-nAChR (Homo sapiens, UniProt P17787+P43681); assay: Patch clamp of HEK293 cells transiently expressing nAChR α4β2; assay type: cell-based; settings: four-parameter logistic fit; read-out: IC50, inhibition of α4β2-nAChR
# T2 construct: expressed in transfected cells; host or cells: HEK293 (transient)
# T2 sequence (P43681 29-627 limits assumed): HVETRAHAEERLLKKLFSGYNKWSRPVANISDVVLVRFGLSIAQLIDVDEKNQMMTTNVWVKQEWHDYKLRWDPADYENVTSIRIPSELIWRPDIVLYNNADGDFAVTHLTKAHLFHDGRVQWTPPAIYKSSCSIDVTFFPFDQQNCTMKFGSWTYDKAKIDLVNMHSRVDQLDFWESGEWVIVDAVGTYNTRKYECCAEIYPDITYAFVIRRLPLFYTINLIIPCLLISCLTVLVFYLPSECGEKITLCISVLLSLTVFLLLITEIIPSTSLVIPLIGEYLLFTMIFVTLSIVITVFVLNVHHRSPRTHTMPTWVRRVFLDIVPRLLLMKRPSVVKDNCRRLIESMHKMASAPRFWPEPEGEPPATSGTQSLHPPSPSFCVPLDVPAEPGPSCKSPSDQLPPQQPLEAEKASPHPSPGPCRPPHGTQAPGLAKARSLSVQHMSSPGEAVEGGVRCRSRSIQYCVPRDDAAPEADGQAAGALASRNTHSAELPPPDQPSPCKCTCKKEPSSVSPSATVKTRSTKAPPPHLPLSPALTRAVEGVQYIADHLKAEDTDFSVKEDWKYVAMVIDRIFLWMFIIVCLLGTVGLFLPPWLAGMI
# T2 sequence (P17787 26-502): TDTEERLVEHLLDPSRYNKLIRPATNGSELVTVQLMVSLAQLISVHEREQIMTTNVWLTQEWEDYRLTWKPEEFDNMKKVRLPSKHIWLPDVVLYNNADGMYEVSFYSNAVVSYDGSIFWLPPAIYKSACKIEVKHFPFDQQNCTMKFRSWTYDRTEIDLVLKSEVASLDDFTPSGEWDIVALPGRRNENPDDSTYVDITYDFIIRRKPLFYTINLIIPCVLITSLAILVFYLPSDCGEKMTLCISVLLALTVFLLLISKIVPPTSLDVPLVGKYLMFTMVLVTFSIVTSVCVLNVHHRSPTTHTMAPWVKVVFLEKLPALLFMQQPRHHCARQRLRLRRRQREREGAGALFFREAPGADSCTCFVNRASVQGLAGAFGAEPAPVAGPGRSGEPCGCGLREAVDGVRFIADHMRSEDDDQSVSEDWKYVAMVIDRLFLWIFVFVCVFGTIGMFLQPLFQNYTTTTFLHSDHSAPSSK
# Description: The patch clamp recording was performed on the third or fourth day after transfection based on the expression level of co-transfected GFP gene. Detailed description of the transfection procedures can be found in the Supporting information.
# nAChR α4β2: HEK293 cells were seeded on poly-D-lysine-coated coverslips placed in a 24-well plate at a density of 8×10^3 cells per well. Cells were transfected with nAChR α4/nAChR β2/GFP with the ratio 2:2:1. The X-tremeGENE HP DNA (Roche) was used for transfection, and the ratio of plasmid to transfection reagent was 1 μg: 2 μL.
# [3] = system: NMDA receptor; assay: Glutamate-induced currents in HEK293 cells stably expressing NMDA receptor; assay type: cell-based
# Description: (§1) Figure S5. Amperograms of CN-105's effect on GluR (AMPA-R) in primary rat hippocampal neuronal cultures (Left) and on GluN (NMDA-R) in a culture of HEK293 cells stably expressing NMDA receptor (Right).
# [4] = system: rat hippocampal brain slices; assay: EPSC recording (evoked, spontaneous, miniature) in hippocampal brain slices; assay type: cell-based
# [5] = system: AMPA receptor; assay: Glutamate-induced currents of AMPA receptor in primary hippocampal neuronal cultures; assay type: cell-based; settings: primary rat hippocampal neuronal cultures
# Description: Rat primary neuronal culture: Primary neuron cultures were prepared from newborn rats. A mixed culture of hippocampal, cortical and thalamic neurons was used for calcium imaging assays. For patch clamp studies, hippocampal neurons from the CA1 region were extracted. The trypsinized brain tissue was incubated at 37°C for 20 minutes before the removal of the enzyme. The cells were washed three times with PBS and suspended with fresh media before being plated on poly-D-lysine-coated coverslips. After 4 h, the media was replaced by Neurobasal+B27+L-Glu (Thermo scientific, USA). Half of the culture medium was changed after 24 h before switched to a 72-hr medium change routine.
# as §1
# [6] = in vivo; settings: both, monkey, iv
# [7] = monkey, in vivo, iv
# [8] = system: SD rats, transient ischemic stroke; assay: Transient middle cerebral artery occlusion (t-MCAO) model; assay type: in vivo, rat; settings: Day 8; for Infarct volume: rat t-MCAO
# Description: Eighty-three Sprague-Dawley (SD) rats were randomly divided into six groups with both sexes as follows: 1) sham group (n=8), 2) vehicle group (n=15), 3) 0.1 mg/kg CN105 (n=15), 4) 0.2 mg/kg CN105 (n=15), 5) 0.4 mg/kg CN-105 (n=15), 6) 6mg/kg edaravone (n=15). Ischemic insult was introduced based on pre-established protocol. Briefly, rats were placed supine under anesthesia, and then the left common carotid arteries were exposed under sterile conditions. A suture was gently inserted into the internal carotid artery through the external carotid artery until the origin of the middle cerebral artery was occluded. The suture thread was removed 90 min after the ischemia, allowing restoration of the blood supply. Animals in the sham group were exposed of the left common carotid artery under anesthesia without ischemic occlusion. A single dose of CN-105 or edaravone were administered intravenously (iv.) 30min after reperfusion. The injection volume was 5mL/kg, given in 2 min. Animals in each group were euthanized at the end of the experiment. Brains were fixed in 10% formalin. The 3 mm-thick coronal brain sections were scanned and imaged to measure the percentage of viable and infarction brain tissue to calculate the percentage of cerebral infarction volume.
# [9] = system: Cynologous monkey; assay: GLP acute toxicology study, iv infusion; assay type: in vivo
# Description: The acute toxicology study of CN-105 was carried out at the facility of CTI Biotechnology (China) in accordance with GLP guidelines of the National Medical Product Administration (NMPA) of China. Briefly, six Cynologous (Cyn) monkeys were assigned to three dosing groups (n = 2/group, M:F= 1:1). The animals were given an iv. infusion of saline (Group 1), 25 mg/kg CN-105 (Group 2) or 100 mg/kg CN-105 (Group 3) twice a day. The infusion volume was 20mL/kg, while the infusion rate was 30min. Forty SD rats were assigned to four dosing groups (n = 10/group, M:F= 1:1) and were given an iv. injection of saline (Group 1), 15 mg/kg CN-105 (Group 2), 30 mg/kg CN-105 (Group 3) or 45 mg/kg CN-105 (Group 4) twice a day. The infusion volume was 5mL/kg, while the infusion rate was 10min. Animals were monitored for a variety of behavioral, physiological, histological and serological endpoints.
# [10] = biological target: T3, α1β1δε-nAChR (Homo sapiens, UniProt P02708+P11230+Q04844+Q07001); assay: Electrophysiology of oocytes injected with nAChR α, β, δ and ε cRNA; assay type: cell-based
# T3 construct: expressed in transfected cells
# T3 sequence (P02708 21-457): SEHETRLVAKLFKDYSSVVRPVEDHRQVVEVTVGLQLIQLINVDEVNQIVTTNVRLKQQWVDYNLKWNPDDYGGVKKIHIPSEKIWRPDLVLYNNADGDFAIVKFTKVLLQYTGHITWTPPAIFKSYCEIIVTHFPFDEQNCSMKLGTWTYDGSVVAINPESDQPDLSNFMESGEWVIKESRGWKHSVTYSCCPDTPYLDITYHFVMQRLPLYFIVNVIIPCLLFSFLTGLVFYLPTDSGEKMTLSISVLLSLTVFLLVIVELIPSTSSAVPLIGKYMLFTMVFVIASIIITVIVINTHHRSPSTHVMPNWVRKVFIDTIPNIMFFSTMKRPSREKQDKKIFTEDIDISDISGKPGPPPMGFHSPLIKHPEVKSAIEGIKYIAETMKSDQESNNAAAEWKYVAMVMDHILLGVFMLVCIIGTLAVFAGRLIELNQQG
# T3 sequence (P11230 24-501): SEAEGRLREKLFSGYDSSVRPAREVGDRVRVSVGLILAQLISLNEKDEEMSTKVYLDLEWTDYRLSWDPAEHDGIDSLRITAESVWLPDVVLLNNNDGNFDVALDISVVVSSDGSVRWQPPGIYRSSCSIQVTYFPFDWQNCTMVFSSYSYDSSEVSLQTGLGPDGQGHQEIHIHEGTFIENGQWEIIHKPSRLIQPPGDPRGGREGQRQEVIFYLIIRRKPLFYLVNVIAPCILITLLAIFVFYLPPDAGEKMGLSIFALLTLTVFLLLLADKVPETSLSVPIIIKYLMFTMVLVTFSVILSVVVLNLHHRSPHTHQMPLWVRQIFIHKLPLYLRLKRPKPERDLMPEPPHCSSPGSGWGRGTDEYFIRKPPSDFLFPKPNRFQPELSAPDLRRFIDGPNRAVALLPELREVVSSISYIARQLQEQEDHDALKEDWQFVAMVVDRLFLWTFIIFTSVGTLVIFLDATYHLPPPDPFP
# T3 sequence (Q07001 22-517): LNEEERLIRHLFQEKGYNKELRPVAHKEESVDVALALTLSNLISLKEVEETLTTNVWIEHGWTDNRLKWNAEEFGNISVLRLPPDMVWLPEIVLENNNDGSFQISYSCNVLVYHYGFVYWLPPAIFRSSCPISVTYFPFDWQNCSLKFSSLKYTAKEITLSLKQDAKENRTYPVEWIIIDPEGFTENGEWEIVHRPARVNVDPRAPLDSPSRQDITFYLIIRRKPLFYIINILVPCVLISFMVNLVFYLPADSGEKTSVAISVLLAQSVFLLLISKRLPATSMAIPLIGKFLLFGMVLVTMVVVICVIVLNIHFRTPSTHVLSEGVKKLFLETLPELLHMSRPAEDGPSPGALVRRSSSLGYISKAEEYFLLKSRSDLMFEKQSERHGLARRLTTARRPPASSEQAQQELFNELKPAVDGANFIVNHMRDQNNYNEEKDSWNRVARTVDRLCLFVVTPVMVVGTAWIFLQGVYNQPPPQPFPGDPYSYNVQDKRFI
# T3 sequence (Q04844 21-493): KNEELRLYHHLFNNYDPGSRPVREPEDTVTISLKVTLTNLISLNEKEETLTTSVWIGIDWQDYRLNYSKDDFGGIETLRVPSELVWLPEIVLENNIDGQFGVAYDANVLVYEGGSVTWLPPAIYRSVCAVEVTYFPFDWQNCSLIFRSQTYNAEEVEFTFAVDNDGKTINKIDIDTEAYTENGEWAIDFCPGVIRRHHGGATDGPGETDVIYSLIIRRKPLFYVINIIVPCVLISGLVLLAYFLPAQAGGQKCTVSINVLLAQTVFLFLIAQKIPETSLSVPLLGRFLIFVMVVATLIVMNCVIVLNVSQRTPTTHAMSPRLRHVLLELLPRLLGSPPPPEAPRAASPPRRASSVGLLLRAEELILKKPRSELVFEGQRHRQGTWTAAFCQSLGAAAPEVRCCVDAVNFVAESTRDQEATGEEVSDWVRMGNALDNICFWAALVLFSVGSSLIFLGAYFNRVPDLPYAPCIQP
# [11] = in vivo; settings: both, SD, rat, iv
# [12] = rat, in vivo, iv
# [13] = system: C57BL6 mice; assay: Mortality of C57BL6 mice after a single tail vein injection; assay type: in vivo
# [14] = biological target: T1, α7-nAChR
molecule,measurement,setting,value
CC(=O)N[C@@H](C)C(=O)N[C@@H](CO)C(=O)N[C@@H](CCCNC(=N)N)C(=O)N[C@@H](CCCNC(=N)N)C(=O)N[C@@H](CCCNC(=N)N)C(N)=O [Ac-ASRRR-NH2] (Ac-ASRRR-NH2),%Inhibition of α7-nAChR,[1],7.4%
CSCC[C@H](NC(C)=O)C(=O)N[C@@H](CO)C(=O)N[C@@H](CCCNC(=N)N)C(=O)N[C@@H](CCCNC(=N)N)C(=O)N[C@@H](CCCNC(=N)N)C(N)=O [Ac-MSRRR-NH2] (Ac-MSRRR-NH2),%Inhibition of α7-nAChR,[1],38.3%
CC(=O)N[C@@H](CCCNC(=N)N)C(=O)N[C@@H](CO)C(=O)N[C@@H](CCCCN)C(=O)N[C@@H](CCCNC(=N)N)C(=O)N[C@@H](CCCNC(=N)N)C(N)=O [Ac-RSKRR-NH2] (Ac-RSKRR-NH2),%Inhibition of α7-nAChR,[1],9.3%
CC(=O)N[C@H](C(=O)N[C@@H](CS)C(=O)N[C@@H](CCCNC(=N)N)C(=O)N[C@@H](CCCNC(=N)N)C(=O)N[C@@H](CCCNC(=N)N)C(N)=O)C(C)C [Ac-VCRRR-NH2] (Ac-VCRRR-NH2),%Inhibition of α7-nAChR,[1],5.9%
CC(=O)N[C@H](C(=O)N[C@@H](CO)C(=O)N[C@@H](CCCCN)C(=O)N[C@@H](CCCCN)C(=O)N[C@@H](CCCNC(=N)N)C(N)=O)C(C)C [Ac-VSKKR-NH2] (Ac-VSKKR-NH2),%Inhibition of α7-nAChR,[1],48.9%
"CC(=O)N[C@H](C(=O)N[C@@H](CO)C(=O)N[C@@H](CCCNC(=N)N)C(=O)N[C@@H](CCCNC(=N)N)C(=O)N[C@@H](CCCNC(=N)N)C(N)=O)C(C)C [CN-105, Ac-VSRRR-NH2] (Ac-VSRRR-NH2)",IC50,[2],500 nM
same,"Direct effect on glutamate-induced currents, NMDA receptor",[3],did not directly inhibit
same,Spontaneous EPSC (sEPSC) frequency,"[4]; rat hippocampal brain slice, CN-105 200 μM as printed in Figure 3 legend",attenuation
same,Evoked EPSC mediated by NMDA receptor versus control,"[4]; rat hippocampal brain slices, holding +50 mV",significantly lower
same,Evoked EPSC mediated by AMPA receptor versus control,"[4]; rat hippocampal brain slices, holding -70 mV",significantly lower
same,NMDA receptor-mediated EPSC with tetrodotoxin (mEPSC),[4]; tetrodotoxin added to block all AP firings,no longer able to affect
same,"Direct effect on glutamate-induced currents, AMPA receptor",[5],did not directly inhibit
same,Effect on ACh induced current,"[1]; 10 μM CN-105, HEK293 overexpressing α7-nAChR",strongly suppressed
same,IC50,"[1]; four-parameter logistic fit, read-out: IC50, inhibition of α7-nAChR",31 nM
same,%Inhibition of α7-nAChR,[1],61.4%
same,Voltage of maximal inhibition,"[1]; voltage dependency, CN-105 40 nM",–80 mV
same,AUC(0-t),[6]; 0.1 mg/kg,348 ± 33.7 ng·h/mL
same,Cmax,[6]; 0.1 mg/kg,320 ± 20.2 ng/mL
same,Tmax,[6]; 0.1 mg/kg,30 min
same,Vd,[6]; 0.1 mg/kg,0.564 ± 0.271 L/kg
same,clearance,[6]; 0.1 mg/kg,4.75 mL/min/kg
same,half-life,[6]; 0.1 mg/kg,82.8 ± 39.6 min
same,AUC(0-t),[6]; 0.5 mg/kg,1650 ± 209 ng·h/mL
same,Cmax,[6]; 0.5 mg/kg,1500 ± 251 ng/mL
same,Tmax,[6]; 0.5 mg/kg,30 min
same,Vd,[6]; 0.5 mg/kg,0.642 ± 0.086 L/kg
same,clearance,[6]; 0.5 mg/kg,5.12 mL/min/kg
same,half-life,[6]; 0.5 mg/kg,87.6 ± 10.3 min
same,AUC(0-t),[6]; 2.5 mg/kg,8300 ± 1200 ng·h/mL
same,Cmax,[6]; 2.5 mg/kg,7460 ± 1190 ng/mL
same,Tmax,[6]; 2.5 mg/kg,30 min
same,Vd,[6]; 2.5 mg/kg,0.691 ± 0.107 L/kg
same,clearance,[6]; 2.5 mg/kg,5.08 mL/min/kg
same,half-life,[6]; 2.5 mg/kg,94.8 ± 12 min
same,Kel,[7]; 0.1 mg/kg,0.566 ± 0.156 h⁻¹
same,Kel,[7]; 0.5 mg/kg,0.481 ± 0.058 h⁻¹
same,Kel,[7]; 2.5 mg/kg,0.445 ± 0.054 h⁻¹
same,Density of viable neurons (NeuN+ cells),[8]; 1 mm2 area at infarct margin,higher
same,Number of β3-GABAAR+ cells at infarct margin,[8]; 1 mm2 area,unaffected
same,Density of α7-nAChR+ cells at infarct margin versus vehicle,"[8]; primary somatosensory cortex, 1 mm2 area",higher density
same,Infarct volume,[8]; 0.1 to 0.4 mg/kg single iv 30 min after reperfusion,significantly reduced
same,Time of gradual recovery to normal activity (about two serum clearance half-lives),[9]; supratherapeutic dosing,~4 h
same,Symptoms after supratherapeutic dosing,[9]; supratherapeutic iv dosing,mydriasis and ptosis
same,IC50,[10],2100 nM
same,AUC(0-t),[11]; 0.1 mg/kg,125 ± 14.3 ng·h/mL
same,C0,[11]; 0.1 mg/kg,560 ± 181 ng/mL
same,Cmax,[11]; 0.1 mg/kg,410 ± 90.5 ng/mL
same,Tmax,[11]; 0.1 mg/kg,2.3 ± 0.948 min
same,Vd,[11]; 0.1 mg/kg,0.385 ± 0.0711 L/kg
same,clearance,[11]; 0.1 mg/kg,13.2 mL/min/kg
same,half-life,[11]; 0.1 mg/kg,20.2 ± 2.52 min
same,AUC(0-t),[11]; 0.3 mg/kg,504 ± 56.6 ng·h/mL
same,C0,[11]; 0.3 mg/kg,2250 ± 463 ng/mL
same,Cmax,[11]; 0.3 mg/kg,1570 ± 211 ng/mL
same,Tmax,[11]; 0.3 mg/kg,2 min
same,Vd,[11]; 0.3 mg/kg,0.342 ± 0.0363 L/kg
same,clearance,[11]; 0.3 mg/kg,9.8 mL/min/kg
same,half-life,[11]; 0.3 mg/kg,24.3 ± 3.3 min
same,AUC(0-t),[11]; 1 mg/kg,1800 ± 192 ng·h/mL
same,C0,[11]; 1 mg/kg,7680 ± 1740 ng/mL
same,Cmax,[11]; 1 mg/kg,5320 ± 906 ng/mL
same,Tmax,[11]; 1 mg/kg,2 min
same,Vd,[11]; 1 mg/kg,0.5 ± 0.085 L/kg
same,clearance,[11]; 1 mg/kg,9.28 mL/min/kg
same,half-life,[11]; 1 mg/kg,37.2 ± 3.87 min
same,AUC(0-t),[11]; 3 mg/kg,5920 ± 508 ng·h/mL
same,C0,[11]; 3 mg/kg,24000 ± 2360 ng/mL
same,Cmax,[11]; 3 mg/kg,17000 ± 1400 ng/mL
same,Tmax,[11]; 3 mg/kg,2 min
same,Vd,[11]; 3 mg/kg,0.645 ± 0.137 L/kg
same,clearance,[11]; 3 mg/kg,8.48 mL/min/kg
same,half-life,[11]; 3 mg/kg,52.8 ± 10.2 min
same,Kel,[12]; 0.1 mg/kg,2.09 ± 0.258 h⁻¹
same,Kel,[12]; 0.3 mg/kg,1.73 ± 0.203 h⁻¹
same,Kel,[12]; 1 mg/kg,1.13 ± 0.106 h⁻¹
same,Kel,[12]; 3 mg/kg,0.823 ± 0.204 h⁻¹
same,Observation after removal of isoflurane anaesthesia,"[13]; 50 mg/kg, intubated and mechanically ventilated",extended sedation
same,Symptoms at lethal dose,"[13]; C57BL6 mice, 25 mg/kg tail vein",spasm and respiratory suppression
same,Mortality under intubation and mechanical ventilation,"[13]; C57BL6 mice, 50 mg/kg, mechanical ventilation with isoflurane anaesthesia",not associated with mortality
same,LD80,"[13]; C57BL6 mice, single tail vein injection, autonomous respiration",25 mg/kg
"CC1=NN(c2ccccc2)C(=O)C1 [edaravone, reference compound]",Infarct volume,[8]; edaravone 6 mg/kg single iv 30 min after reperfusion,similar
apoE130‐149 (peptide),"IC50 of inhibition of α7‐nAChR current (electrophysiology); given only as the concentration used, close to the IC50",[14],500 nM
Ac-VSRRR-NH2 [CN‐105],"IC50 of inhibition of α7‐nAChR current (electrophysiology); given only as the concentration used, close to the IC50",[14],40 nM
